Measured values published in US8293212B2, “Inhibitor screening method and atopic dermatitis like symptom inducing method which utilizes induction of production of interleukin 18 by keratinocyte and utilization of same” (Japan Science & Technology Agency, priority 2003, dated 2012).
Where a SMILES comes first, the peptide text is derived from it. The star is where a group is joined. Cbz = O=C(OCc1ccccc1)*; CH2F = FC*

How the values were obtained:
[1] = system: Kupffer cells; conditions: secretion caused by LPS or membrane-bound Fas ligand stimulation; stated as background; cited from earlier work
[2] = system: KC of wild-type mice stimulated with SpA; test: Effect of caspase inhibitors on IL-18 secretion from SpA-stimulated KC; format: cell-based, mouse; conditions: 20 μM inhibitor, 500 μg/ml SpA, 24 hours (FIG. 7C)
Description: (§1) KC (5×10^5/ml) or PAM212 cells (2×10^5/ml) were incubated with a variety of doses of SpA and 1 μg/ml LPS or mFasL (1×10^6/ml) for 24 hours. In some examples, KC of wild-type mice were incubated with 100 μg/ml SpA in the presence of 20 μM of ZVAD or YVAD for 24 hours. IL-18 concentration and its activity in each supernatant were determined by ELISA and bioassay respectively. In some examples, KC were incubated with 500 μg/ml SpA for 4 hours, and total RNA was extracted, followed by RT-PCR (see Tsutsui, H., Matsui, K., Kawada, N., Hyodo, Y., Hayashi, N., Okamura, H., Higashino, K. and Nakanishi, K. 1997. IL-18 accounts for both TNF-α and Fas ligand-mediated hepatotoxic pathways in endotoxin-induced liver injury in mice. J. Immunol. 159:3961). As to primers for IL-18, IL-12p35, IL-12p40, or β-actin, and PCR conditions for individual cytokines, see the Tsutsui et al.
To be specific, KC were prepared from wild-type mice, caspase-1-deficient mice, TLR2-deficient mice, or MyD88-deficient mice. The KC of the wild-type mice were incubated with 500 μg/ml SpA in the presence of 20μ MZVAD, 20 μM YVAD, or the same volume of DMSO(Veh) for 24 hours. On the other hand, KC from each of the mutants were incubated with 500 μg/ml SpA for 24 hours. IL-18 in each supernatant was measured by ELISA. The result is illustrated in FIG. 7C. […]

[3] = system: KC from wild-type B6 mice; test: IL-18 secretion from newly isolated KC after stimulation, ELISA of supernatant; format: cell-based, mouse
Description: (§2) Concentration of IL-18 was determined by an ELISA kit manufactured by MBL. IL-4, IFN-γ, and IL-1β were determined by an ELISA kit manufactured by Genzyme. An ELISA kit for IL-5 was purchased from Endogen. IgE serum level was determined by an ELISA kit manufactured by pharMingen. IFN-γ induction ability of IL-18 was determined by bioassay using clones of IL-18-responsive mouse NK cells (see Non-Patent Document 6 and others)
In order to delete DC, KC were incubated with CD11c microbeads (manufactured by Miltenyi Biotec), and then CD 11c^+ cells were depleted using an AutoMACS™ separator.
as §1, with “al. […]” for “al.”
To be specific, KC or CD11c^+ cell-depleted KC prepared from skin of wild-type B6 mice were analyzed for their expression of CD11c and MHC class II (1-A^b) by flow cytometry. These cells were incubated with or without SpA for 24 hours, and concentration of IL-18 in the resulting supernatant was measured by ELISA. […]
Further, because Kupffer cells secrete IL-18 in response to stimulation with LPS or membrane-bound Fas ligand, it was examined whether these stimuli induce IL-18 secretion from KC. […] IL-18 contained in each resulting supernatant was measured by ELISA.

[4] = system: normal B6 mice; test: Application of SpA on ear skin of normal B6 mice, serum IL-18/IgE and Th1/Th2 differentiation; format: in vivo, mouse
Description: Splenic CD4^+ T cells were isolated from variously treated mice using an AutoMACS™ separator (manufactured by Miltenyi Biotec). The newly isolated spleen cells were incubated with anti-CD4 beads (manufactured by Miltenyi Biotec). The purity of the CD4^+ T cells was more than 98%. The cells (1×10^6/ml) were incubated with immobilized anti-CD3ε (manufactured by PharMingen) for 48 hours. Concentrations of IFN-γ and IL-4 in each supernatant were determined by ELISA.
as §2
Solutions made by dissolving various doses of SpA in 5 μl vehicle (50% glycerol in PBS) were prepared, and the SpA solutions were applied on ear skin of wild-type mice for 14 days. For the control study, 5 μl vehicle without SpA was used. One mouse was caged to avoid effects from other mice.
To be specific, various amounts of SpA or only vehicles were applied on ear skin of normal B6 mice once a day for two weeks. After that, on day 14, serum and spleens were sampled so as to measure concentration of IL-18 or IgE. Further, splenic CD4^+ T cells from mice on which vehicle or SpA(100 μg/day) was applied were incubated with plate-bound anti-CD3 for 48 hours, and concentrations of IFN-γ and IL-4 in each supernatant were measured by ELISA. The results of the measurements are illustrated in FIGS. 6A through 6C.

[5] = system: Kupffer cells; test: Cytokine expression and secretion of Kupffer cells after stimulation; format: cell-based, mouse; conditions: in response to SpA, data not shown
Description: Kupffer cells were prepared according to Non-Patent Document 6. Kupffer cells (1×10^6/ml) were incubated with 1 μg/ml LPS (lypopolysaccharide) for 4 hours, and their IL-18, IL-12p35, IL-12p40 and β-actin expressions were determined as mRNA levels by RT-PCR.
Next, it was examined whether SpA-stimulated KC secretes IL-12 as well as IL-18. In order to detect a small amount of IL-12, total RNA were obtained from KC that had been incubated with SpA for 4 hours, and RT-PCR was performed using the RNA. To be specific, KC and Kupffer cells of wild-type B6 mice were separately incubated in the presence/absence of 500 μg/ml SpA, and in the presence/absence of 1 μg/ml LPS for 4 hours. Expression level of mRNA of IL-18, IL-12p40, IL-12p35, and β-actin out of all extracted RNA were measured by RT-PCR. The result of the measurement is illustrated in FIG. 7D.

[6] = system: PAM212 cells; test: IL-18 secretion and IFN-γ-inducing bioactivity of IL-18 from PAM212 cells incubated with SpA; format: cell-based, mouse; conditions: PAM212 cells incubated with SpA 24 hours (FIG. 7A)
Description: as §2
To be specific, LNK5E6 cells, having higher responsiveness to stimulation with IL-18 in terms of IFN-γ production than LNK5E3 cells (see Non-Patent Document 6), were incubated with a variety of samples and 100 pg/ml IL-12, in the presence or absence of anti-IL-18 antibody (50 μg/ml), for 48 hours. […]
KC (5×10^5/ml) or PAM212 cells (2×10^5/ml) were incubated with a variety of doses of SpA and 1 μg/ml LPS or mFasL (1×10^6/ml) for 24 hours. […] IL-18 concentration and its activity in each supernatant were determined by ELISA and bioassay respectively. […]
To be specific, PAM212 cells (culture strain of KC of mice) were incubated with or without SpA for 24 hours, and the IL-18 concentration and IFN-γ-inducing bioactivity of IL-18 in each supernatant were determined by ELISA and bioassay respectively. […] ND stands for “not detected”.

[7] = system: NC/Nga mice; test: Induction of AD-like skin lesion by application on shaven backs of NC/Nga mice; format: in vivo, mouse; conditions: 4% of SDS, SpA 200 μg/day, alone or as mixture
[8] = system: KC of wild-type B6 mice; test: IL-12 expression (RT-PCR) and IL-12 secretion (ELISA) in SpA-stimulated KC; format: cell-based, mouse
Description: as §1
Next, it was examined whether SpA-stimulated KC secretes IL-12 as well as IL-18. In order to detect a small amount of IL-12, total RNA were obtained from KC that had been incubated with SpA for 4 hours, and RT-PCR was performed using the RNA. […] Expression level of mRNA of IL-18, IL-12p40, IL-12p35, and β-actin out of all extracted RNA were measured by RT-PCR. […]

Row | Compound | inhibition of IL-18 secretion from Kupffer cells [1] | inhibition of secretion of IL-18 from SpA-stimulated KC [2] | IL-18 produced by KC ([3]; 500 μg/ml SpA without adding DMSO, 24 hours (FIG. 7C)) | IL-18 in supernatant ([3]; KC 5×10^5/ml, 24 hours, 500 μg/ml SpA, 1 μg/ml LPS or 1×10^6/ml mFasL, ND = not detected) | IL-18 release from newly isolated KC in response to SpA ([3]; various amounts of SpA, 24 hours (FIG. 7B)) | Th1/Th2 differentiation of splenic CD4+ T cells (IFN-γ and IL-4) ([4]; SpA 100 μg/day, anti-CD3 48 hours (FIG. 6C)) | IL-12p40 and IL-12p70 in sera (ELISA) ([4]; data not shown) | serum levels of IL-18 ([4]; ear skin, once a day for two weeks, day 14 (FIG. 6A)) | serum IgE levels ([4]; ear skin, once a day for two weeks, day 14 (FIG. 6B)) | secretion of IL-12 or IL-18 from Kupffer cells [5] | secretion of activated IL-18 (ELISA and IFN-γ-inducing bioassay) [6] | development of AD / skin lesion like AD [7] | IL-12p35 and IL-12p40 mRNA expression (RT-PCR) ([8]; 500 μg/ml SpA, 4 hours (FIG. 7D)) | IL-12p40 or IL-12p70 in supernatant (ELISA) ([8]; 24-hour incubation, data not shown)
1 | CC(=O)N[C@@H](Cc1ccc(O)cc1)C(=O)N[C@H](C(=O)N[C@@H](C)C(=O)N[C@@H](CC(=O)O)C(=O)CCl)C(C)C [YVAD, Ac-YCAD-CMK] | strongly inhibit | did not inhibit |  |  |  |  |  |  |  |  |  |  |  | 
2 | COC(=O)C[C@H](NC(=O)[C@H](C)NC(=O)[C@@H](NC(=O)OCc1ccccc1)C(C)C)C(=O)CF [ZVAD, Z-VAD-FMK] (Cbz-Val-Ala-Asp(OMe)-CH2F) | strongly inhibit | did not inhibit |  |  |  |  |  |  |  |  |  |  |  | 
3 | SpA: protein A purified from Staphylococcus aureus Cowan 1, purchased from Calbiochem |  |  | 28.4 ± 3.5 pg/mL | 31.5 ± 3.2 pg/mL | released IL-18 in a dose-dependent manner | did not show preferential differentiation of Th2 cells | not detected | increased | increased in a dose-dependent manner | did not secrete IL-12 or IL-18 | secreted activated IL-18 | do not develop AD | neither IL-12p35 nor IL-12p40 were detected | not detected
